Measurements from US20250157614A1, “SUBSTANCE DELIVERY PLANNING SYSTEM” (Syqe Medical Ltd., priority 2019, published 2025).

What was measured:
chronic pain = assay: Clinical trial: pain intensity (0-10 point VAS) after single inhalation via metered dose inhaler; type: in vivo, human (hospitalized adult patients)
From the text: FIG. 5B presents effects of the three different interventions on pain intensity. About 1 VAS point decline in pain intensity was noted during the follow-up period following placebo administration.

[1] = Clinical trial: pharmacokinetic analysis of Δ9-THC plasma levels after single inhalation via metered dose inhaler
Procedure: An objective of the trial was to evaluate the effects of a single inhalation of vaporized ground cannabis doses comprising 0.5 mg or 1 mg THC, as compared to placebo. […] The patients were licensed to use medical cannabis and were guided to refrain from using cannabis at least 12 hours prior to the trial commencement. The patients were guided how to use the inhaler device and signed a written consent.
The trial included three sessions, with an interval of at least 48 hours between sessions. In each of the sessions, a randomized single dose or placebo was delivered to the patients via inhalation. During each session, at a plurality of pre-defined time points, the patients were cognitively tested using “Cambridge Neuropsychological Test Automated Battery”; questioned for assessment of pain (using the VAS); their blood pressure and heartrate were measured; and they were questioned regarding safety parameters, such as feeling “high”, dizziness, mouth dryness. Blood samples were collected at pre-defined time points for performing a pharmacokinetic analysis of THC (being the active substance, in accordance with some embodiments).

[2] = 0.5 mg dosage, observed at 120 minutes following inhalation
[3] = 1 mg dosage, observed at 60 minutes following inhalation
[4] = single inhalation of 0.5 mg Δ9-THC
[5] = single inhalation of 1 mg Δ9-THC

CCCCCc1cc(O)c2c(c1)OC(C)(C)[C@@H]1CCC(C)=C[C@@H]21 [Δ9-THC, Δ9-tetrahydrocannabinol]
maximum change in VAS pain score (chronic pain; [2]): 1.95 points | maximum change in VAS pain score (percent) (chronic pain; [2]): 24% | decline in pain intensity compared to placebo (chronic pain; 0.5 mg Δ9-THC dose, follow-up period): greater decline in pain intensity | maximum change in VAS pain score (chronic pain; [3]): 2.95 points | maximum change in VAS pain score (percent) (chronic pain; [3]): 39.4% | reduction in VAS compared to placebo (0 mg) and 0.5 mg (chronic pain; 1 mg dose, 15 minutes after inhalation and onward, RM-ANOVA p=0.0015 vs placebo, p=0.0058 vs 0.5 mg): statistically significantly larger | mean area under the curve of plasma concentration vs. time from 0 to infinity (AUC0→infinity) [1, 4]: 300 ± 144 ng/min/mL | time upon which maximum plasma concentration was reached (Tmax) [1, 4]: 3.7 ± 1.4 min | mean maximum plasma Δ9-THC concentration (Cmax) ±SD ([1]; single inhalation of 0.5 mg Δ9-THC, vaporized ground cannabis, 22 of 27 patients analysed): 14.3 ± 7.7 ng/mL | AUC0→infinity [1, 5]: 769 ± 331 ng/min/mL | Cmax ±SD [1, 5]: 33.8 ± 25.7 ng/mL | Tmax [1, 5]: 4.4 ± 2.1 min
